Measured values: the NIST ThermoML archive (doi:10.1021/je060411g)

Test: molar heat capacity at constant pressure
Conditions: 101.33 kPa

CC(C)(C)CO [2,2-dimethyl-1-propanol]
Conditions	molar heat capacity at constant pressure [J/K/mol]
6.04 K, Crystal 2, Vacuum adiabatic calorimetry	1.42
6.22 K, Crystal 2, Vacuum adiabatic calorimetry	1.34
6.72 K, Crystal 2, Vacuum adiabatic calorimetry	1.62
6.93 K, Crystal 2, Vacuum adiabatic calorimetry	1.79
7.63 K, Crystal 2, Vacuum adiabatic calorimetry	2.48
7.66 K, Crystal 2, Vacuum adiabatic calorimetry	2.49
8.46 K, Crystal 2, Vacuum adiabatic calorimetry	3.25
8.71 K, Crystal 2, Vacuum adiabatic calorimetry	3.26
9.38 K, Crystal 2, Vacuum adiabatic calorimetry	3.5
9.84 K, Crystal 2, Vacuum adiabatic calorimetry	3.94
10 K, Crystal 2	4.09
10.52 K, Crystal 2, Vacuum adiabatic calorimetry	4.52
11.19 K, Crystal 2, Vacuum adiabatic calorimetry	4.61
11.74 K, Crystal 2, Vacuum adiabatic calorimetry	4.61
12.6 K, Crystal 2, Vacuum adiabatic calorimetry	5.48
12.96 K, Crystal 2, Vacuum adiabatic calorimetry	6.1
13.95 K, Crystal 2, Vacuum adiabatic calorimetry	7.71
14.12 K, Crystal 2, Vacuum adiabatic calorimetry	7.8
15 K, Crystal 2	9
15.22 K, Crystal 2, Vacuum adiabatic calorimetry	9.22
15.26 K, Crystal 2, Vacuum adiabatic calorimetry	9.22
16.54 K, Crystal 2, Vacuum adiabatic calorimetry	10.78
16.63 K, Crystal 2, Vacuum adiabatic calorimetry	10.92
17.89 K, Crystal 2, Vacuum adiabatic calorimetry	12.37
18.17 K, Crystal 2, Vacuum adiabatic calorimetry	12.68
19.28 K, Crystal 2, Vacuum adiabatic calorimetry	14.02
19.75 K, Crystal 2, Vacuum adiabatic calorimetry	14.6
20 K, Crystal 2	14.89
20.7 K, Crystal 2, Vacuum adiabatic calorimetry	15.68
21.36 K, Crystal 2, Vacuum adiabatic calorimetry	16.44
22.16 K, Crystal 2, Vacuum adiabatic calorimetry	17.26
23.02 K, Crystal 2, Vacuum adiabatic calorimetry	18.27
23.65 K, Crystal 2, Vacuum adiabatic calorimetry	18.89
24.72 K, Crystal 2, Vacuum adiabatic calorimetry	20.07
25 K, Crystal 2	20.35
25.17 K, Crystal 2, Vacuum adiabatic calorimetry	20.52
26.45 K, Crystal 2, Vacuum adiabatic calorimetry	21.86
26.71 K, Crystal 2, Vacuum adiabatic calorimetry	22.12
27.26 K, Crystal 2, Vacuum adiabatic calorimetry	22.45
27.45 K, Crystal 2, Vacuum adiabatic calorimetry	22.66
28.26 K, Crystal 2, Vacuum adiabatic calorimetry	23.73
28.44 K, Crystal 2, Vacuum adiabatic calorimetry	23.84
29.84 K, Crystal 2, Vacuum adiabatic calorimetry	25.29
30 K, Crystal 2	25.41
30.14 K, Crystal 2, Vacuum adiabatic calorimetry	25.52
31.75 K, Crystal 2, Vacuum adiabatic calorimetry	26.93
33.36 K, Crystal 2, Vacuum adiabatic calorimetry	28.48
35 K, Crystal 2	29.8
35.01 K, Crystal 2, Vacuum adiabatic calorimetry	29.81
36.67 K, Crystal 2, Vacuum adiabatic calorimetry	31.13
38.35 K, Crystal 2, Vacuum adiabatic calorimetry	32.76
40 K, Crystal 2	33.67
40.05 K, Crystal 2, Vacuum adiabatic calorimetry	33.71
41.77 K, Crystal 2, Vacuum adiabatic calorimetry	34.97
43.5 K, Crystal 2, Vacuum adiabatic calorimetry	36.21
45 K, Crystal 2	37.23
45.25 K, Crystal 2, Vacuum adiabatic calorimetry	37.39
47.01 K, Crystal 2, Vacuum adiabatic calorimetry	38.58
48.78 K, Crystal 2, Vacuum adiabatic calorimetry	39.8
50 K, Crystal 2	40.59
50.56 K, Crystal 2, Vacuum adiabatic calorimetry	40.96
52.36 K, Crystal 2, Vacuum adiabatic calorimetry	42.15
54.16 K, Crystal 2, Vacuum adiabatic calorimetry	43.42
55 K, Crystal 2	43.96
55.98 K, Crystal 2, Vacuum adiabatic calorimetry	44.6
57.81 K, Crystal 2, Vacuum adiabatic calorimetry	45.76
59.64 K, Crystal 2, Vacuum adiabatic calorimetry	46.96
60 K, Crystal 2	47.18
61.49 K, Crystal 2, Vacuum adiabatic calorimetry	48
63.34 K, Crystal 2, Vacuum adiabatic calorimetry	48.9
65 K, Crystal 2	49.1
65.21 K, Crystal 2, Vacuum adiabatic calorimetry	49.05
67.11 K, Crystal 2, Vacuum adiabatic calorimetry	48.13
69.02 K, Crystal 2, Vacuum adiabatic calorimetry	47.57
70 K, Crystal 2	49.5
70.93 K, Crystal 2, Vacuum adiabatic calorimetry	51.84
72.82 K, Crystal 2, Vacuum adiabatic calorimetry	53.62
74.71 K, Crystal 2, Vacuum adiabatic calorimetry	54.48
75 K, Crystal 2	54.63
76.62 K, Crystal 2, Vacuum adiabatic calorimetry	55.54
78.53 K, Crystal 2, Vacuum adiabatic calorimetry	57.23
80 K, Crystal 2	58.6
80.43 K, Crystal 2, Vacuum adiabatic calorimetry	58.98
82.34 K, Crystal 2, Vacuum adiabatic calorimetry	59.82
84.25 K, Crystal 2, Vacuum adiabatic calorimetry	60.91
85 K, Crystal 2	61.31
86.17 K, Crystal 2, Vacuum adiabatic calorimetry	61.94
88.09 K, Crystal 2, Vacuum adiabatic calorimetry	63.01
90 K, Crystal 2	64.25
90.01 K, Crystal 2, Vacuum adiabatic calorimetry	64.26
91.94 K, Crystal 2, Vacuum adiabatic calorimetry	65.3
93.72 K, Crystal 2, Vacuum adiabatic calorimetry	66.04
93.87 K, Crystal 2, Vacuum adiabatic calorimetry	66.34
93.99 K, Crystal 2, Vacuum adiabatic calorimetry	65.67
95 K, Crystal 2	66.91
95.11 K, Crystal 2, Vacuum adiabatic calorimetry	67.03
95.8 K, Crystal 2, Vacuum adiabatic calorimetry	67.7
97.08 K, Crystal 2, Vacuum adiabatic calorimetry	68.3
97.74 K, Crystal 2, Vacuum adiabatic calorimetry	68.54
99.03 K, Crystal 2, Vacuum adiabatic calorimetry	69.37
99.68 K, Crystal 2, Vacuum adiabatic calorimetry	69.74
100 K, Crystal 2	69.96
100.97 K, Crystal 2, Vacuum adiabatic calorimetry	70.67
102.92 K, Crystal 2, Vacuum adiabatic calorimetry	71.57
104.87 K, Crystal 2, Vacuum adiabatic calorimetry	72.73
105 K, Crystal 2	72.8
106.82 K, Crystal 2, Vacuum adiabatic calorimetry	73.77
108.77 K, Crystal 2, Vacuum adiabatic calorimetry	74.92
110 K, Crystal 2	75.58
110.72 K, Crystal 2, Vacuum adiabatic calorimetry	75.98
112.68 K, Crystal 2, Vacuum adiabatic calorimetry	77.06
114.63 K, Crystal 2, Vacuum adiabatic calorimetry	78.14
116.59 K, Crystal 2, Vacuum adiabatic calorimetry	79.23
118.55 K, Crystal 2, Vacuum adiabatic calorimetry	80.35
120 K, Crystal 2	81.21
120.51 K, Crystal 2, Vacuum adiabatic calorimetry	81.5
122.47 K, Crystal 2, Vacuum adiabatic calorimetry	82.44
124.43 K, Crystal 2, Vacuum adiabatic calorimetry	83.56
126.39 K, Crystal 2, Vacuum adiabatic calorimetry	84.65
128.36 K, Crystal 2, Vacuum adiabatic calorimetry	85.69
130 K, Crystal 2	86.6
130.32 K, Crystal 2, Vacuum adiabatic calorimetry	86.79
131.73 K, Crystal 2, Vacuum adiabatic calorimetry	87.42
132.15 K, Crystal 2, Vacuum adiabatic calorimetry	87.41
132.29 K, Crystal 2, Vacuum adiabatic calorimetry	87.89
133.36 K, Crystal 2, Vacuum adiabatic calorimetry	88.24
134.27 K, Crystal 2, Vacuum adiabatic calorimetry	88.87
135.34 K, Crystal 2, Vacuum adiabatic calorimetry	89.35
136.24 K, Crystal 2, Vacuum adiabatic calorimetry	89.94
137.31 K, Crystal 2, Vacuum adiabatic calorimetry	90.43
139.28 K, Crystal 2, Vacuum adiabatic calorimetry	91.45
140 K, Crystal 2	91.85
141.25 K, Crystal 2, Vacuum adiabatic calorimetry	92.54
143.22 K, Crystal 2, Vacuum adiabatic calorimetry	93.56
145.19 K, Crystal 2, Vacuum adiabatic calorimetry	94.64
147.17 K, Crystal 2, Vacuum adiabatic calorimetry	95.67
149.14 K, Crystal 2, Vacuum adiabatic calorimetry	96.7
150 K, Crystal 2	97.11
151.11 K, Crystal 2, Vacuum adiabatic calorimetry	97.64
153.09 K, Crystal 2, Vacuum adiabatic calorimetry	98.81
155.06 K, Crystal 2, Vacuum adiabatic calorimetry	99.89
157.04 K, Crystal 2, Vacuum adiabatic calorimetry	100.86
159.01 K, Crystal 2, Vacuum adiabatic calorimetry	101.85
160 K, Crystal 2	102.4
160.99 K, Crystal 2, Vacuum adiabatic calorimetry	102.94
162.97 K, Crystal 2, Vacuum adiabatic calorimetry	104.04
164.94 K, Crystal 2, Vacuum adiabatic calorimetry	104.98
166.92 K, Crystal 2, Vacuum adiabatic calorimetry	106.04
168.9 K, Crystal 2, Vacuum adiabatic calorimetry	107.14
170 K, Crystal 2	107.8
170.88 K, Crystal 2, Vacuum adiabatic calorimetry	108.23
172.86 K, Crystal 2, Vacuum adiabatic calorimetry	109.18
174.83 K, Crystal 2, Vacuum adiabatic calorimetry	110.28
176.81 K, Crystal 2, Vacuum adiabatic calorimetry	111.23
178.79 K, Crystal 2, Vacuum adiabatic calorimetry	112.41
180 K, Crystal 2	113.1
180.77 K, Crystal 2, Vacuum adiabatic calorimetry	113.61
182.75 K, Crystal 2, Vacuum adiabatic calorimetry	115.04
184.73 K, Crystal 2, Vacuum adiabatic calorimetry	115.99
186.72 K, Crystal 2, Vacuum adiabatic calorimetry	117.16
188.7 K, Crystal 2, Vacuum adiabatic calorimetry	118.27
190 K, Crystal 2	119.2
190.69 K, Crystal 2, Vacuum adiabatic calorimetry	119.62
192.68 K, Crystal 2, Vacuum adiabatic calorimetry	120.83
194.67 K, Crystal 2, Vacuum adiabatic calorimetry	122.08
196.66 K, Crystal 2, Vacuum adiabatic calorimetry	123.36
198.66 K, Crystal 2, Vacuum adiabatic calorimetry	124.74
200 K, Crystal 2	125.7
200.66 K, Crystal 2, Vacuum adiabatic calorimetry	126.14
202.67 K, Crystal 2, Vacuum adiabatic calorimetry	127.38
204.67 K, Crystal 2, Vacuum adiabatic calorimetry	128.75
206.68 K, Crystal 2, Vacuum adiabatic calorimetry	130.08
208.7 K, Crystal 2, Vacuum adiabatic calorimetry	131.55
210 K, Crystal 2	132.5
210.71 K, Crystal 2, Vacuum adiabatic calorimetry	132.96
212.71 K, Crystal 2, Vacuum adiabatic calorimetry	134.53
214.72 K, Crystal 2, Vacuum adiabatic calorimetry	136.27
216.71 K, Crystal 2, Vacuum adiabatic calorimetry	138.22
220 K, Crystal 2	145
237.42 K, Crystal 1	158.16
239.45 K, Crystal 1	159.61
240 K, Crystal 1	160.1
241.42 K, Crystal 1	161.17
243.4 K, Crystal 1	162.58
245.38 K, Crystal 1	163.87
247.36 K, Crystal 1	165.12
249.33 K, Crystal 1	166.8
250 K, Crystal 1	167.3
251.31 K, Crystal 1	168.24
253.28 K, Crystal 1	169.62
255.26 K, Crystal 1	171.23
257.24 K, Crystal 1	172.85
259.21 K, Crystal 1	174.64
260 K, Crystal 1	175.3
261.18 K, Crystal 1	176.19
263.15 K, Crystal 1	177.74
265.1 K, Crystal 1	179.42
267.05 K, Crystal 1	181.32
268.99 K, Crystal 1	183.18
270 K, Crystal 1	184
270.93 K, Crystal 1	184.74
272.86 K, Crystal 1	186.95
274.77 K, Crystal 1	188.7
276.68 K, Crystal 1	190.91
278.57 K, Crystal 1	192.85
280 K, Crystal 1	194.5
280.46 K, Crystal 1	195.04
282.33 K, Crystal 1	197.11
284.2 K, Crystal 1	199.17
286.05 K, Crystal 1	201.41
287.9 K, Crystal 1	203.48
289.73 K, Crystal 1	205.72
290 K, Crystal 1	206
291.56 K, Crystal 1	207.85
293.37 K, Crystal 1	211.16
295.17 K, Crystal 1	213.27
298.15 K, Crystal 1	214.3
300 K, Crystal 1	216.4
310 K, Crystal 1	227.8
328.08 K, Liquid	267.44
329.23 K, Liquid	268.95
330 K, Liquid	256.6
330.33 K, Liquid	267.74
330.38 K, Liquid	270.44
331.53 K, Liquid	271.12
331.59 K, Liquid	268.59
332.68 K, Liquid	271.99
332.84 K, Liquid	269.67
333.82 K, Liquid	273.19
334.1 K, Liquid	271.2
334.97 K, Liquid	273.8
335.35 K, Liquid	272.07
336.11 K, Liquid	274.9
336.6 K, Liquid	273.27
337.25 K, Liquid	276.23
337.86 K, Liquid	274.28
338.39 K, Liquid	277.22
339.12 K, Liquid	275.37
339.52 K, Liquid	278.09
340 K, Liquid	277.1
340.38 K, Liquid	276.53
340.66 K, Liquid	278.87
341.64 K, Liquid	277.24
341.79 K, Liquid	279.67
342.91 K, Liquid	278.19
342.92 K, Liquid	280.81
344.05 K, Liquid	281.29
344.18 K, Liquid	279.29
345.18 K, Liquid	282
345.46 K, Liquid	280.32
346.75 K, Liquid	281.22
348.04 K, Liquid	282.21
349.35 K, Liquid	283.25
350 K, Liquid	283.8
350.67 K, Liquid	284.33
352.01 K, Liquid	285.41
353.37 K, Liquid	286.57
354.74 K, Liquid	285.99
356.13 K, Liquid	288.33
357.55 K, Liquid	289.27
358.99 K, Liquid	289.94
360 K, Liquid	290.2
360.45 K, Liquid	290.3
361.93 K, Liquid	290.05
363.41 K, Liquid	288.87
364.86 K, Liquid	286.3
366.24 K, Liquid	283
367.51 K, Liquid	296.63
368.71 K, Liquid	295.14
369.9 K, Liquid	295.38
370 K, Liquid	295.4
371.09 K, Liquid	296.21
372.27 K, Liquid	296.96
373.45 K, Liquid	297.66
374.63 K, Liquid	298.2
375.81 K, Liquid	298.87
376.99 K, Liquid	299.38
378.17 K, Liquid	299.76
379.34 K, Liquid	300.28
380.52 K, Liquid	300.53
